These results are taken from US9085557B2, “Quinolylpiperazino substituted thiolactone compounds and process for the preparation thereof” (Council of Scientific and Industrial Research, priority 2010, dated 2015).

Values after ≈ are worked out from the molar mass of the structure shown. Where two headings read alike, the source gives them in different places.

Experiment [1] has as its system M. tuberculosis H37Rv (ATCC 27294). The experiment is described as follows: MIC determination by broth dilution against M. tuberculosis H37Rv. The experiment is classed as cell-based, Mycobacterium tuberculosis. The settings on record: M. tuberculosis H37Rv, broth dilution, 3 weeks at 37° C., read visually (no turbidity). A general note: Dilution methods test growth across graded concentrations, often in twofold steps.

Experiment [2] concerns M. tuberculosis XDR-1 (XDR- strain). The experiment is described as follows: microbe, parasite or virus in culture. The format is cell-based, Mycobacterium tuberculosis. The settings on record: Mycobacterium tuberculosis, 504 h.
The test system of experiment [3] is M. tuberculosis -617 (MDR- strain). The experiment can be described thus: microbe, parasite or virus in culture. The settings on record: Mycobacterium tuberculosis, 504 h. The experiment is classed as cell-based, Mycobacterium tuberculosis.
A further experiment has as its system M. tuberculosis H37Rv. The experiment is described as follows: In vivo efficacy in murine model of M. tuberculosis H37Rv infection. On the set-up: species or system mice (BALB/c). The settings on record: BALB/c mice, intranasal infection, treatment from 1 week post infection, PO once daily for 4 weeks; RIF 20 mg/kg, 3f 25 mg/kg. The method, then:
The Compound 3f used in this study ([…]). The compound 3f was tested in vivo at 25 mg/kg. Rifampicin at 20 mg/kg was also tested as positive control. For in vivo studies compound and rifampicin was dissolved in pure DMSO and formulation was prepared 50% PEG in water for oral administration. The final concentration of DMSO was less than 0.1% v/v.
The institutional animal Ethics committee of the Indian Institute of Integrative Medicine (CSIR, Jammu) approved all experimental protocols with animals and the use of animals. The animals were bred and maintained under standard husbandry conditions; viz. humidity, temperature (25±2° C.). 8-week-old female (BALB/c) mice 20-22 gm by weight were used for the efficacy studies. Animals were allowed 1 week of acclimation before intake into experimental studies. Feed and water were given ad libitum.
Infection of M. tuberculosis:
M. tuberculosis (H37Rv) for infection was grown by the culturing of bacteria from Lowenstein-Jensen slant in Middlebrooke 7H9 medium on a rotary shaker for 10 days at 37° C. […] The mice were sacrificed after week post infection (early control), and bacterial numbers in the lungs were determined by macerating the organs (lung) and plating serial tenfold serial dilution on Middlebrook 7H10 agar plates in triplicates. […]
Eight infected mice were sacrificed from the control group 7 day after the infection (before the initiation of treatment) to obtain the initial CFU load of M. tuberculosis H37Rv at the initiation of treatment. […] Viable bacteria were quantitated by plating 10-fold serial dilutions in duplicates on Middlebrook, 7H10 agar supplemented with 10% OADC (oleic acid albumin dextrose catalase, Becton Dickinson, Sparks, Md.) and incubated at 37° C. in 5% CO2 for 4-6 weeks. CFU per organ sample was counted and expressed as log10 CFU per organ. CFU during in-vivo studies were determined on Middlebrook 7H10 plates supplement with 10% OADC containing Vancomycin 10 μg/ml, Amphoterecin 10 μg/ml, Nalidaxic acid 25 μg/ml. […]

[4] abbreviates: Mycobacterium tuberculosis, 504 h, read-out: MIC.

Regarding `CC1=C(OCCCCCN2CCN(c3ccnc4cc(Cl)ccc34)CC2)C(C)SC1=O` (stereo not shown) [Compound 4a, 3,5-dimethyl-4-(5-[4-(7-chloro-4-quinolyl)piperazino]pentyloxy)-5H-thiophen-2-one], the MIC in experiment [1] (setting [4]) was determined as 16 µg/mL (≈ 34.8 µM).

`CC1=C(OCCCCCCCCN2CCCN(c3ccnc4cc(C(F)(F)F)ccc34)CC2)C(C)SC1=O` (stereo not shown) [Compound 5c, 3,5-dimethyl-4-[(8-4-[7-(trifluoromethyl)-4-quinolyl]-1,4-diazepan-1-yloctyl)oxy]-5H-thiophen-2-one]: the MIC in experiment [1] turned out to be 16 µg/mL (≈ 29.1 µM). `CC1=C(OCCCCCCCCCN2CCN(c3ccnc4cc(Cl)ccc34)CC2)C(C)SC1=O` (stereo not shown) [Compound 4d, 3,5-dimethyl-4-(9-[4-(7-chloro-4-quinolyl)piperazino]nonyloxy)-5H-thiophen-2-one]: the MIC in experiment [1] (setting [4]) came out at 8 µg/mL (≈ 15.5 µM). For the molecule `C=C/C(C)=C/[C@@]1(C)SC(=O)C(C)=C1O` [Thiolactomycin, reference compound], the MIC in experiment [1], in experiment [1] (setting [4]), in experiment [2] and in experiment [3] was 25 µg/mL (≈ 119 µM) in each case. Consider `CC1=C(OCCCCCCCCN2CCN(c3ccnc4cc(Cl)ccc34)CC2)C(C)SC1=O` (stereo not shown) [Compound 4c, 3,5-dimethyl-4-(8-[4-(7-chloro-4-quinolyl)piperazino]octyloxy)-5H-thiophen-2-one], for which, in experiment [1] (setting [4]), the MIC was determined as 8 µg/mL (≈ 15.9 µM). In experiment [1], `CC1=C(OCCCCCCCCCCCCN2CCCN(c3ccnc4cc(C(F)(F)F)ccc34)CC2)C(C)SC1=O` (stereo not shown) [Compound 5f, 3,5-dimethyl-4-[(12-4-[7-(trifluoromethyl)-4-quinolyl]-1,4-diazepan-1-yldodecyl)oxy]-5H-thiophen-2-one] came in with an MIC of 8 µg/mL (≈ 13.2 µM).

Take `CC1=C(OCCCCCCN2CCN(c3ccnc4cc(Cl)ccc34)CC2)C(C)SC1=O` (stereo not shown) [Compound 4b, 3,5-dimethyl-4-(6-[4-(7-chloro-4-quinolyl)piperazino]hexyloxy)-5H-thiophen-2-one]: the MIC in experiment [1] (setting [4]) came to 16 µg/mL (≈ 33.8 µM). Regarding `CC1=C(OCCCCCCCCCCN2CCCN(c3ccnc4cc(Cl)ccc34)CC2)C(C)SC1=O` (stereo not shown) [Compound 6e, 3,5-dimethyl-4-(10-[4-(7-chloro-4-quinolyl)-1,4-diazepan-1-yl]decyloxy)-5H-thiophen-2-one], the MIC in experiment [1] (setting [4]) is 16 µg/mL (≈ 29.4 µM). In the case of `CC1=C(OCCCCCCN2CCN(c3ccnc4cc(C(F)(F)F)ccc34)CC2)C(C)SC1=O` (stereo not shown) [Compound 3b, 3,5-dimethyl-4-[(6-4-[7-(trifluoromethyl)-4-quinolyl]piperazinohexyl)oxy]-5H-thiophen-2-one], in experiment [1], the MIC turned out to be 16 µg/mL (≈ 31.5 µM).

Molecule `CC1=C(OCCCCCN2CCN(c3ccnc4cc(C(F)(F)F)ccc34)CC2)C(C)SC1=O` (stereo not shown) [Compound 3a, 3,5-dimethyl-4-[(5-4-[7-(trifluoromethyl)-4-quinolyl]piperazinopentyl)oxy]-5H-thiophen-2-one] displayed an MIC in experiment [1] of 16 µg/mL (≈ 32.4 µM).

For `CC1=C(OCCCCCCCCCCN2CCCN(c3ccnc4cc(C(F)(F)F)ccc34)CC2)C(C)SC1=O` (stereo not shown) [Compound 5e, 3,5-dimethyl-4-[(10-4-[7-(trifluoromethyl)-4-quinolyl]-1,4-diazepan-1-yldecyl)oxy]-5H-thiophen-2-one], the MIC in experiment [1] was found to be 8 µg/mL (≈ 13.8 µM). Take `CC1=C(OCCCCCCN2CCCN(c3ccnc4cc(Cl)ccc34)CC2)C(C)SC1=O` (stereo not shown) [Compound 6b, 3,5-dimethyl-4-(6-[4-(7-chloro-4-quinolyl)-1,4-diazepan-1-yl]hexyloxy)-5H-thiophen-2-one]: the MIC in experiment [1] (setting [4]) was found to be 8 µg/mL (≈ 16.4 µM). `CC1=C(OCCCCCCCCCCN2CCN(c3ccnc4cc(C(F)(F)F)ccc34)CC2)C(C)SC1=O` (stereo not shown) [Compound 3e, 3,5-dimethyl-4-[(10-4-[7-(trifluoromethyl)-4-quinolyl]piperazinodecyl)oxy]-5H-thiophen-2-one] came in with an MIC in experiment [1] of 16 µg/mL (≈ 28.4 µM). In experiment [1], `CC1=C(OCCCCCCCCN2CCN(c3ccnc4cc(C(F)(F)F)ccc34)CC2)C(C)SC1=O` (stereo not shown) [Compound 3c, 3,5-dimethyl-4-[(8-4-[7-(trifluoromethyl)-4-quinolyl]piperazinooctyl)oxy]-5H-thiophen-2-one] returned an MIC of 16 µg/mL (≈ 29.9 µM). Take `CO[C@H]1/C=C/O[C@@]2(C)Oc3c(C)c(O)c4c(O)c(c(/C=N/N5CCN(C)CC5)c(O)c4c3C2=O)NC(=O)/C(C)=C\C=C\[C@H](C)[C@H](O)[C@@H](C)[C@@H](O)[C@@H](C)[C@H](OC(C)=O)[C@@H]1C` [RIF, Rifampicin, reference compound]: the “Log10 CFU/left Lung (mean ± SD)” value with M. tuberculosis H37Rv is recorded as 2.0 ± 0.41 Log10 CFU/left Lung. `CC1=C(OCCCCCCCCCN2CCCN(c3ccnc4cc(C(F)(F)F)ccc34)CC2)C(C)SC1=O` (stereo not shown) [Compound 5d, 3,5-dimethyl-4-[(9-4-[7-(trifluoromethyl)-4-quinolyl]-1,4-diazepan-1-ylnonyl)oxy]-5H-thiophen-2-one] came in with an MIC in experiment [1] of 16 µg/mL (≈ 28.4 µM). For the molecule `CC1=C(OCCCCCCCCCCCCN2CCCN(c3ccnc4cc(Cl)ccc34)CC2)C(C)SC1=O` (stereo not shown) [Compound 6f, 3,5-dimethyl-4-(12-[4-(7-chloro-4-quinolyl)-1,4-diazepan-1-yl]dodecyloxy)-5H-thiophen-2-one], the MIC in experiment [1] (setting [4]) was 4 µg/mL (≈ 6.99 µM). For the molecule `CC1=C(OCCCCCCCCCCN2CCN(c3ccnc4cc(Cl)ccc34)CC2)C(C)SC1=O` (stereo not shown) [Compound 4e, 3,5-dimethyl-4-(10-[4-(7-chloro-4-quinolyl)piperazino]decyloxy)-5H-thiophen-2-one], the MIC in experiment [1] (setting [4]) was 8 µg/mL (≈ 15.1 µM). `CC1=C(OCCCCCN2CCCN(c3ccnc4cc(C(F)(F)F)ccc34)CC2)C(C)SC1=O` (stereo not shown) [Compound 5a, 3,5-dimethyl-4-[(5-4-[7-(trifluoromethyl)-4-quinolyl]-1,4-diazepan-1-ylpentyl)oxy]-5H-thiophen-2-one] had an MIC in experiment [1] of 16 µg/mL (≈ 31.5 µM).

The molecule `CC1=C(OCCCCCCCCCN2CCN(c3ccnc4cc(C(F)(F)F)ccc34)CC2)C(C)SC1=O` (stereo not shown) [Compound 3d, 3,5-dimethyl-4-[(9-4-[7-(trifluoromethyl)-4-quinolyl]piperazinononyl)oxy]-5H-thiophen-2-one] came in with an MIC in experiment [1] of 16 µg/mL (≈ 29.1 µM).

Regarding `CC1=C(OCCCCCN2CCCN(c3ccnc4cc(Cl)ccc34)CC2)C(C)SC1=O` (stereo not shown) [Compound 6a, 3,5-dimethyl-4-(5-[4-(7-chloro-4-quinolyl)-1,4-diazepan-1-yl]pentyloxy)-5H-thiophen-2-one], in experiment [1] (setting [4]), the MIC worked out at 16 µg/mL (≈ 33.8 µM).

With `CC1=C(OCCCCCCCCCN2CCCN(c3ccnc4cc(Cl)ccc34)CC2)C(C)SC1=O` (stereo not shown) [Compound 6d, 3,5-dimethyl-4-(9-[4-(7-chloro-4-quinolyl)-1,4-diazepan-1-yl]nonyloxy)-5H-thiophen-2-one], the MIC in experiment [1] (setting [4]) turned out to be 8 µg/mL (≈ 15.1 µM). In turn, `CC1=C(OCCCCCCN2CCCN(c3ccnc4cc(C(F)(F)F)ccc34)CC2)C(C)SC1=O` (stereo not shown) [Compound 5b, 3,5-dimethyl-4-[(6-4-[7-(trifluoromethyl)-4-quinolyl]-1,4-diazepan-1-ylhexyl)oxy]-5H-thiophen-2-one] came in with an MIC in experiment [1] of 16 µg/mL (≈ 30.7 µM). Consider `NNC(=O)c1ccncc1` [Isoniazid, reference compound], for which the figures for the MIC in experiment [1] (setting [4]), in experiment [2] and in experiment [3] were 0.5 µg/mL (≈ 3.65 µM), 0.5 µg/mL (≈ 3.65 µM) and 128 µg/mL (≈ 933 µM), respectively.

For `CC1=C(OCCCCCCCCN2CCCN(c3ccnc4cc(Cl)ccc34)CC2)C(C)SC1=O` (stereo not shown) [Compound 6c, 3,5-dimethyl-4-(8-[4-(7-chloro-4-quinolyl)-1,4-diazepan-1-yl]octyloxy)-5H-thiophen-2-one], the MIC in experiment [1] (setting [4]) is 16 µg/mL (≈ 31 µM). Take `CC1=C(OCCCCCCCCCCCCN2CCN(c3ccnc4cc(Cl)ccc34)CC2)C(C)SC1=O` (stereo not shown) [Compound 4f, 3,5-dimethyl-4-(12-[4-(7-chloro-4-quinolyl)piperazino]dodecyloxy)-5H-thiophen-2-one]: in experiment [1] (setting [4]), the MIC came out at 8 µg/mL (≈ 14.3 µM).
